# Measurements: article PMC10056611, “Synthesis and Biological Evaluation of 3-Amino-4,4-Dimethyl Lithocholic Acid Derivatives as Novel, Selective, and Cellularly Active Allosteric SHP1 Activators” (Molecules, 2023)
# Several values for one entry are separate records, joined by “and”; a condition that tells them apart may be missing. Equal values may be shown once.
# Tests used:
# SHP1 = SHP1 (Homo sapiens, UniProt P29350); experiment: SHP1 enzyme assay (DiFMUP fluorogenic substrate), activation; format: biochemical; settings: DiFMUP assay; for EC50 / Maximum Activation Fold: mean ± SEM
# SHP1, sequence (P29350 whole entry): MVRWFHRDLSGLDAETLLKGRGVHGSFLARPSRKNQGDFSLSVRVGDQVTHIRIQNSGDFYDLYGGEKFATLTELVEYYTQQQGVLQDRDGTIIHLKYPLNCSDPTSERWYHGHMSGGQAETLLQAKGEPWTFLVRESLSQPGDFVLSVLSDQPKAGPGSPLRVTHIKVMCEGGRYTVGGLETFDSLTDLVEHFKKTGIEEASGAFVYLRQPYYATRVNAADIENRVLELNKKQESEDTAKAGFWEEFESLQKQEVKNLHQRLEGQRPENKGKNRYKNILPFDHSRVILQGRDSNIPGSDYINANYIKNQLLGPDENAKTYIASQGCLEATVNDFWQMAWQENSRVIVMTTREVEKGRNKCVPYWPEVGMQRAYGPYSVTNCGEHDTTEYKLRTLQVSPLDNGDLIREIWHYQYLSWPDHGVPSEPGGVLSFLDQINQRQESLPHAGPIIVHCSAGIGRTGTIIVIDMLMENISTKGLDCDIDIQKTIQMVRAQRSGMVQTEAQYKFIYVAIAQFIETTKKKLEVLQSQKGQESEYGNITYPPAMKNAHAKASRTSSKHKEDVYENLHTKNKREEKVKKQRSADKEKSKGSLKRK
# Excerpt: The SHP1-activating effects of the synthetic compounds were examined by the 6,8-difluoro-4-methylumbelliferyl phosphate (DiFMUP) assay.
# The proteins SHP1 and SHP2, containing a GST-tag, were expressed in E. coli. 6,8-Difluoro-4-methylumbelliferyl phosphate (DiFMUP) was used as the fluorogenic substrate. Fluorescence data were collected by the Envision (PerkinElmer, Waltham, MA, USA) plate reader, using excitation and emission wavelengths of 358 and 455 nm, respectively. A sigmoidal dose-response curve was fitted to the data, and the EC50 values were calculated using GraphPad Prism. In the data processing, the fitting and curves were calculated using nonlinear regression, and the fold value of the compound was calculated using the software GraphPad Prism 8. The folds were obtained according to the equation: Y = Bottom + (Top-Bottom)/(1 + 10^((LogEC50-X) × HillSlope)). The data represent mean values ± standard error of the mean (SEM) of eight-point experiments, each performed in triplicates from three independent experiments.
Compound,EC50 (SHP1) [µM],Maximum Activation Fold (SHP1),melting point [°C],SHP1 activity (in words) (SHP1)
C[C@H](CCCO)[C@H]1CCC2C3CC=C4C(C)(C)C(N)CC[C@]4(C)C3CC[C@@]21C (some centres unmarked) [Compound 5aa],19.2 ± 4.59,6.03 ± 0.87 fold,163.5 to 166.3,–
CCC(O)CC[C@@H](C)[C@H]1CCC2C3CC=C4C(C)(C)C(N)CC[C@]4(C)C3CC[C@@]21C (some centres unmarked) [Compound 5ao],15.5 ± 4.38,6.59 ± 0.48 fold,> 300,–
CCCC(O)CC[C@@H](C)[C@H]1CCC2C3CC=C4C(C)(C)C(N)CC[C@]4(C)C3CC[C@@]21C (some centres unmarked) [Compound 5ap],38.1 ± 3.76,6.65 ± 0.35 fold,> 300,–
"C[C@H](CCCO)[C@H]1CCC2C3CC=C4C(C)(C)C(NC(=O)Nc5ccc(Cl)c(C(F)(F)F)c5)CC[C@]4(C)C3CC[C@@]21C (stereo partly drawn) [Compound 5ax, 1-(4-chloro-3-(trifluoromethyl)phenyl)-3-((10R,13R,17R)-17-((R)-5-hydroxypentan-2-yl)-4,4,10,13-tetramethyl-2,3,4,7,8,9,10,11,12,13,14,15,16,17-tetradecahydro-1H-cyclopenta[a]phenanthren-3-yl)urea]",> 50,–,221.1 to 223.7,no activity
"C[C@H](CCCO)[C@H]1CCC2C3=CC=C4C(C)(C)C(N)CC[C@]4(C)C3CC[C@@]21C (stereo partly drawn) [Compound 5ak, (4R)-4-((10R,13R,17R)-3-amino-4,4,10,13-tetramethyl-2,3,4,9,10,11,12,13,14,15,16,17-dodecahydro-1H-cyclopenta[a]phenanthren-17-yl)pentan-1-ol]",20 ± 3.34,7.74 fold and 7.74 ± 0.20 fold,179.5 to 181.3,–
C[C@H](CCCO)[C@H]1CCC2C3CC=C4C(C)(C)C(NCCCCl)CC[C@]4(C)C3CC[C@@]21C (some centres unmarked) [Compound 5ad],47.34 ± 0.34,–,162.7 to 165.5,–
"C=CCC(O)(CC=C)CC[C@@H](C)[C@H]1CCC2C3CC=C4C(C)(C)C(N)CC[C@]4(C)C3CC[C@@]21C (stereo partly drawn) [Compound 5av, (7R)-4-allyl-7-((10R,13R,17R)-3-amino-4,4,10,13-tetramethyl-tetradecahydro-1H-cyclopenta[a]phenanthren-17-yl)oct-1-en-4-ol]",35.8 ± 1.92,5.90 ± 0.42 fold,235.5 to 237.4,–
C[C@H](CCCO)[C@H]1CCC2C3C(O)C=C4C(C)(C)C(N)CC[C@]4(C)C3CC[C@@]21C (some centres unmarked) [Compound 5ai],> 50,–,171.4 to 173.2,–
CC(O)CC[C@@H](C)[C@H]1CCC2C3CC=C4C(C)(C)C(N)CC[C@]4(C)C3CC[C@@]21C (some centres unmarked) [Compound 5an],17.6 ± 1.75,6.33 ± 0.01 fold,> 300,–
C[C@H](CCCO)[C@H]1CCC2C3CC=C4C(C)(C)C(NCCO)CC[C@]4(C)C3CC[C@@]21C (some centres unmarked) [Compound 5ab],39.1 ± 3.7,–,184.3 to 187.5,–
C[C@H](CO)[C@H]1CCC2C3CC=C4C(C)(C)C(N)CC[C@]4(C)C3CC[C@@]21C (some centres unmarked) [Compound 5aw],35.5 ± 3.15,–,170.6 to 173.8,–
CCCC(O)(CCC)CC[C@@H](C)[C@H]1CCC2C3CC=C4C(C)(C)C(N)CC[C@]4(C)C3CC[C@@]21C (some centres unmarked) [Compound 5au],24.4 ± 3.61,6.42 ± 0.28 fold,242.6 to 244.9,–
"C=CCC(O)CC[C@@H](C)[C@H]1CCC2C3CC=C4C(C)(C)C(N)CC[C@]4(C)C3CC[C@@]21C (stereo partly drawn) [Compound 5ar, (7R)-7-((10R,13R,17R)-3-amino-4,4,10,13-tetramethyl-tetradecahydro-1H-cyclopenta[a]phenanthren-17-yl)oct-1-en-4-ol]",12.9 ± 0.75,6.94 ± 0.17 fold,250.4 to 252.6,–
